Consider eight molecules from ChEMBL document CHEMBL1944544, “Synthesis and immunological evaluation of the 4-β-glucoside of HMBPP” (Bioorg Med Chem Lett, 2012).

For orientation: EC50 means the concentration giving half of the maximal effect.

The nature of test [1]: Immunostimulatory activity in human Gamma delta T cells expressing Vgamma2Vdelta2T assessed as proliferation after 16 to 24 hrs by [3H]thymidine incorporation assay. Format: functional, cell-based. Conditions: T-cell.
Test [2] has as its system T-cell. Kind of test: Immunostimulatory activity in human Gamma delta T cells expressing Vgamma2Vdelta2T assessed as proliferation up to 300 uM after 16 to 24 hrs by [3H]thymidine incorporation assay. Type of test: functional, cell-based. Background: Incorporation of labelled thymidine or its analogues reports DNA synthesis.
For test [3], the system named is T-cell. Kind of test: Ratio of compound EC50 to isopentenyl pyrophosphate EC50 for immunostimulatory activity in human Gamma delta T cells expressing Vgamma2Vdelta2T. Type of test: functional.

The source made the active and inactive calls. The calls are words filed in the database; no cut-off is given here.

With `C/C(=C\COP(=O)(O)OP(=O)(O)O)COCc1ccc(C(=O)c2ccccc2)cc1`, the EC50 in test [1] was found to be 1.8 nM.

For the molecule `C/C(=C\COP(=O)(O)OP(=O)(O)O)COC(=O)c1cccc(C(=O)c2ccccc2)c1`, the EC50 in test [1] is 0.08 nM.

As for `CC(=O)OC[C@H]1O[C@@H](OC/C(C)=C/COP(=O)(O)OP(=O)(O)O)[C@H](OC(C)=O)[C@@H](OC(C)=O)[C@@H]1OC(C)=O`, the EC50 in test [1] stood at 360 nM.

Turning to `C/C(=C\CO[C@@H]1O[C@H](CO)[C@@H](O)[C@H](O)[C@H]1O)CO`, the result with T-cell [2] was inactive.

For the molecule `C/C(=C\COP(=O)(O)OP(=O)(O)O)COCc1cccc(C(=O)c2ccccc2)c1`, the EC50 in test [1] came out at 1.8 nM.

Turning to `C/C(=C\COP(=O)(O)OP(=O)(O)O)COC(=O)c1ccc(C(=O)c2ccccc2)cc1`, the EC50 in test [1] is 0.08 nM.

As for `C/C(=C\CO)CO[C@@H]1O[C@H](CO)[C@@H](O)[C@H](O)[C@H]1O`, the outcome with T-cell [2] was inactive.

As for `C/C(=C\COP(=O)(O)OP(=O)(O)O)CO[C@@H]1O[C@H](CO)[C@@H](O)[C@H](O)[C@H]1O`, in test [1], the EC50 came to 78 nM. The “Ratio EC50” value in the test with T-cell [3] was determined as 12.
